Data taken from PubChem BioAssay AID2060332 (Molecular Pharmacology Branch, DTP, NCI, 2025).
pIC50: −log10 of the molar value. Values joined by “and” are separate entries in the source; they are usually repeats but may differ in a detail not shown here. Equal entries are not always repeated.

System: LG0567-F671-PDC multi-cell spheroid viability
Assay: Anticancer human tumor LG0567-F671-PDC patient-derived lung adenocarcinoma cell line growth inhibition [IpAb]
Conditions: for viability, T/C: stronger effect = lower value
Outline: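 Combinations with ipatasertib or abemaciclib were tested on tumour spheroids holding HUVEC (25%) and MSC (15%) alongside 60% malignant cells. Top concentration was at or near clinical Cmax (10 microM if undefined), descending in half-log steps.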

[1] = curve of first compound, second compound 0.1 µM
[2] = curve of first compound, second compound 0.316 µM
[3] = curve of first compound, second compound 1 µM
[4] = curve of first compound, second compound 3.16 µM
[5] = curve of first compound, second compound 10 µM
[6] = second compound 0.1 µM, first compound 0.0316 µM
[7] = second compound 0.1 µM, first compound 0.1 µM
[8] = second compound 0.316 µM, first compound 0.0316 µM
[9] = second compound 0.316 µM, first compound 0.1 µM
[10] = second compound 1 µM, first compound 0.0316 µM
[11] = second compound 1 µM, first compound 0.1 µM
[12] = second compound 3.16 µM, first compound 0.0316 µM
[13] = second compound 3.16 µM, first compound 0.1 µM
[14] = second compound 10 µM, first compound 0.0316 µM
[15] = second compound 10 µM, first compound 0.1 µM
[16] = second compound 0.1 µM, first compound 0.316 µM
[17] = second compound 0.1 µM, first compound 1 µM
[18] = second compound 0.1 µM, first compound 3.16 µM
[19] = second compound 0.1 µM, first compound 10 µM
[20] = second compound 0.316 µM, first compound 0.316 µM
[21] = second compound 0.316 µM, first compound 1 µM
[22] = second compound 0.316 µM, first compound 3.16 µM
[23] = second compound 0.316 µM, first compound 10 µM
[24] = second compound 1 µM, first compound 0.316 µM
[25] = second compound 1 µM, first compound 1 µM
[26] = second compound 1 µM, first compound 3.16 µM
[27] = second compound 1 µM, first compound 10 µM
[28] = second compound 3.16 µM, first compound 0.316 µM
[29] = second compound 3.16 µM, first compound 1 µM
[30] = second compound 3.16 µM, first compound 3.16 µM
[31] = second compound 3.16 µM, first compound 10 µM
[32] = second compound 10 µM, first compound 0.316 µM
[33] = second compound 10 µM, first compound 1 µM
[34] = second compound 10 µM, first compound 3.16 µM
[35] = second compound 10 µM, first compound 10 µM
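Also: viability read after 7 days of drug exposure.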
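For viability, T/C in this document: 100% = DMSO vehicle control luminescence.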

## Cn1ncnc1[C@H]1c2n[nH]c(=O)c3cc(F)cc(c23)N[C@@H]1c1ccc(F)cc1 + CC(C)NCC(C(=O)N1CCN(c2ncnc3c2C(C)CC3O)CC1)c1ccc(Cl)cc1
[1]
  pIC50: 7.66
[2]
  pIC50: 8.01
[3]
  pIC50: 7.74
[4]
  pIC50: 7.42
[5]
  pIC50: 7.69
Second compound 0.1 µM, first compound 0.000316 µM
  viability, T/C: 104%
Second compound 0.1 µM, first compound 0.001 µM
  viability, T/C: 97.9%
Second compound 0.1 µM, first compound 0.00316 µM
  viability, T/C: 68.9%
Second compound 0.1 µM, first compound 0.01 µM
  viability, T/C: 64.9%
[6]
  viability, T/C: 42%
[7]
  viability, T/C: 41.1%
Second compound 0.316 µM, first compound 0.000316 µM
  viability, T/C: 69.1%
Second compound 0.316 µM, first compound 0.001 µM
  viability, T/C: 70.5%
Second compound 0.316 µM, first compound 0.00316 µM
  viability, T/C: 64.1%
Second compound 0.316 µM, first compound 0.01 µM
  viability, T/C: 44.9%
[8]
  viability, T/C: 56.4%
[9]
  viability, T/C: 47.8%
Second compound 1 µM, first compound 0.000316 µM
  viability, T/C: 73.6%
Second compound 1 µM, first compound 0.001 µM
  viability, T/C: 74.5%
Second compound 1 µM, first compound 0.00316 µM
  viability, T/C: 75%
Second compound 1 µM, first compound 0.01 µM
  viability, T/C: 68.5%
[10]
  viability, T/C: 27.8%
[11]
  viability, T/C: 37.7%
Second compound 3.16 µM, first compound 0.000316 µM
  viability, T/C: 79.3%
Second compound 3.16 µM, first compound 0.001 µM
  viability, T/C: 71.3%
Second compound 3.16 µM, first compound 0.00316 µM
  viability, T/C: 77.5%
Second compound 3.16 µM, first compound 0.01 µM
  viability, T/C: 59.2%
[12]
  viability, T/C: 53.6%
[13]
  viability, T/C: 37.6%
Second compound 10 µM, first compound 0.000316 µM
  viability, T/C: 63.9%
Second compound 10 µM, first compound 0.001 µM
  viability, T/C: 70.5%
Second compound 10 µM, first compound 0.00316 µM
  viability, T/C: 70.6%
Second compound 10 µM, first compound 0.01 µM
  viability, T/C: 50.8%
[14]
  viability, T/C: 49.6%
[15]
  viability, T/C: 35.3%

## CC(C)(C)c1cnc(CSc2cnc(NC(=O)C3CCNCC3)s2)o1 + CCN1CCN(Cc2ccc(Nc3ncc(F)c(-c4cc(F)c5nc(C)n(C(C)C)c5c4)n3)nc2)CC1
Curve of first compound, second compound 0.01 µM
  pIC50: 6.82
Curve of first compound, second compound 0.0316 µM
  pIC50: 6.89
[1]
  pIC50: 6.97
[2]
  pIC50: 7.13
[3]
  pIC50: 7.28
Second compound 0.01 µM, first compound 0.00949 µM
  viability, T/C: 108%
Second compound 0.01 µM, first compound 0.03 µM
  viability, T/C: 118%
Second compound 0.01 µM, first compound 0.0949 µM
  viability, T/C: 82.8%
Second compound 0.01 µM, first compound 0.3 µM
  viability, T/C: 3.32%
Second compound 0.01 µM, first compound 0.949 µM
  viability, T/C: 1.33%
Second compound 0.01 µM, first compound 3 µM
  viability, T/C: 0.84%
Second compound 0.0316 µM, first compound 0.00949 µM
  viability, T/C: 86.5%
Second compound 0.0316 µM, first compound 0.03 µM
  viability, T/C: 92.3%
Second compound 0.0316 µM, first compound 0.0949 µM
  viability, T/C: 66.8%
Second compound 0.0316 µM, first compound 0.3 µM
  viability, T/C: 4.66%
Second compound 0.0316 µM, first compound 0.949 µM
  viability, T/C: 1.42%
Second compound 0.0316 µM, first compound 3 µM
  viability, T/C: 0.84%
Second compound 0.1 µM, first compound 0.00949 µM
  viability, T/C: 62.2%
Second compound 0.1 µM, first compound 0.03 µM
  viability, T/C: 81.8%
Second compound 0.1 µM, first compound 0.0949 µM
  viability, T/C: 55.4%
Second compound 0.1 µM, first compound 0.3 µM
  viability, T/C: 2.56%
Second compound 0.1 µM, first compound 0.949 µM
  viability, T/C: 1.28%
Second compound 0.1 µM, first compound 3 µM
  viability, T/C: 0.81%
Second compound 0.316 µM, first compound 0.00949 µM
  viability, T/C: 56%
Second compound 0.316 µM, first compound 0.03 µM
  viability, T/C: 73.7%
Second compound 0.316 µM, first compound 0.0949 µM
  viability, T/C: 45.9%
Second compound 0.316 µM, first compound 0.3 µM
  viability, T/C: 3.08%
Second compound 0.316 µM, first compound 0.949 µM
  viability, T/C: 1.56%
Second compound 0.316 µM, first compound 3 µM
  viability, T/C: 1.05%
Second compound 1 µM, first compound 0.00949 µM
  viability, T/C: 58.5%
Second compound 1 µM, first compound 0.03 µM
  viability, T/C: 66%
Second compound 1 µM, first compound 0.0949 µM
  viability, T/C: 37%
Second compound 1 µM, first compound 0.3 µM
  viability, T/C: 4.69%
Second compound 1 µM, first compound 0.949 µM
  viability, T/C: 2.05%
Second compound 1 µM, first compound 3 µM
  viability, T/C: 1.1%

## CCCS(=O)(=O)Nc1ccc(F)c(C(=O)c2c[nH]c3ncc(-c4ccc(Cl)cc4)cc23)c1F + CC(C)NCC(C(=O)N1CCN(c2ncnc3c2C(C)CC3O)CC1)c1ccc(Cl)cc1
[1]
  pIC50: < 5.00
[2]
  pIC50: < 5.00
[3]
  pIC50: < 5.00
[4]
  pIC50: < 5.00
[5]
  pIC50: < 5.00
[6]
  viability, T/C: 100%
[7]
  viability, T/C: 119%
[16]
  viability, T/C: 111%
[17]
  viability, T/C: 137%
[18]
  viability, T/C: 162%
[19]
  viability, T/C: 147%
[8]
  viability, T/C: 77.1%
[9]
  viability, T/C: 90.5%
[20]
  viability, T/C: 94.5%
[21]
  viability, T/C: 114%
[22]
  viability, T/C: 127%
[23]
  viability, T/C: 140%
[10]
  viability, T/C: 77.3%
[11]
  viability, T/C: 78.6%
[24]
  viability, T/C: 88.3%
[25]
  viability, T/C: 115%
[26]
  viability, T/C: 124%
[27]
  viability, T/C: 82%
[12]
  viability, T/C: 88.3%
[13]
  viability, T/C: 82.5%
[28]
  viability, T/C: 93.8%
[29]
  viability, T/C: 102%
[30]
  viability, T/C: 82.9%
[31]
  viability, T/C: 77.5%
[14]
  viability, T/C: 88.3%
[15]
  viability, T/C: 64.1%
[32]
  viability, T/C: 77%
[33]
  viability, T/C: 84.9%
[34]
  viability, T/C: 70.3%
[35]
  viability, T/C: 57.7%

## Cn1ncc(Cl)c1-c1cc(C(=O)NC(CN)Cc2cccc(F)c2)sc1Cl (configuration not stated) + CC(C)NCC(C(=O)N1CCN(c2ncnc3c2C(C)CC3O)CC1)c1ccc(Cl)cc1
[1]
  pIC50: 5.49
[2]
  pIC50: 5.47
[3]
  pIC50: 5.72
[4]
  pIC50: 5.52
[5]
  pIC50: 5.62
[6]
  viability, T/C: 68.7%
[7]
  viability, T/C: 68.3%
[16]
  viability, T/C: 74.8%
[17]
  viability, T/C: 81.1%
[18]
  viability, T/C: 50.8%
[19]
  viability, T/C: 0.2%
[8]
  viability, T/C: 79.6%
[9]
  viability, T/C: 81.4%
[20]
  viability, T/C: 81.8%
[21]
  viability, T/C: 61.7%
[22]
  viability, T/C: 58.2%
[23]
  viability, T/C: 0.18%
[10]
  viability, T/C: 71.1%
[11]
  viability, T/C: 89.5%
[24]
  viability, T/C: 71.3%
[25]
  viability, T/C: 67.1%
[26]
  viability, T/C: 37.1%
[27]
  viability, T/C: 0.16%
[12]
  viability, T/C: 70%
[13]
  viability, T/C: 82.5%
[28]
  viability, T/C: 76.3%
[29]
  viability, T/C: 51.5%
[30]
  viability, T/C: 57%
[31]
  viability, T/C: 0.39%
[14]
  viability, T/C: 77.5%
[15]
  viability, T/C: 76.9%
[32]
  viability, T/C: 83.6%
[33]
  viability, T/C: 60.2%
[34]
  viability, T/C: 46.6%
[35]
  viability, T/C: 0.19%

## Cn1ncc(Cl)c1-c1cc(C(=O)NC(CN)Cc2cccc(F)c2)sc1Cl (configuration not stated)
Compound 0.0316 µM
  viability, T/C: 111% and 97.3%
Compound 0.1 µM
  viability, T/C: 93% and 66%
Compound 0.316 µM
  viability, T/C: 52.6% and 62.1%
Compound 1 µM
  viability, T/C: 82.9% and 63%
Compound 3.16 µM
  viability, T/C: 53% and 45.6%
Compound 10 µM
  viability, T/C: 0.27% and 0.21%
Curve of compound
  pIC50: 5.61 and 5.78

## CCN1CCN(Cc2ccc(Nc3ncc(F)c(-c4cc(F)c5nc(C)n(C(C)C)c5c4)n3)nc2)CC1
Compound alone, run of 06/01/2021
  pIC50: < 6.00

## CC(=O)c1c(C)c2cnc(Nc3ccc(N4CCNCC4)cn3)nc2n(C2CCCC2)c1=O
Compound 0.000949 µM
  viability, T/C: 95.7% and 102%
Compound 0.003 µM
  viability, T/C: 78.4% and 87.8%
Compound 0.00949 µM
  viability, T/C: 107% and 91.7%
Compound 0.03 µM
  viability, T/C: 68.7% and 76.1%
Compound 0.0949 µM
  viability, T/C: 91.7% and 72.5%
Compound 0.3 µM
  viability, T/C: 86.8% and 82.4%
Curve of compound
  pIC50: < 6.52

## CC1(C)CCC(CN2CCN(c3ccc(C(=O)NS(=O)(=O)c4ccc(NCC5CCOCC5)c([N+](=O)[O-])c4)c(Oc4cnc5[nH]ccc5c4)c3)CC2)=C(c2ccc(Cl)cc2)C1
Compound 0.0316 µM
  viability, T/C: 96.3% and 101%
Compound 0.1 µM
  viability, T/C: 87.4% and 110%
Compound 0.316 µM
  viability, T/C: 86.8% and 105%
Compound 1 µM
  viability, T/C: 112% and 113%
Compound 3.16 µM
  viability, T/C: 145% and 143%
Compound 10 µM
  viability, T/C: 25.2% and 23%
Curve of compound
  pIC50: 5.15
